According to article PMC5471521, “Novel selective β1-adrenoceptor antagonists for concomitant cardiovascular and respiratory disease” (The FASEB Journal, 2017):
Where two headings read alike, the source gives them in different places.

Legend:
[1] = molecular target: human albumin (Homo sapiens, UniProt P02768); assay: Plasma protein binding estimated from retention on human albumin columns; type: in vitro ADME; conditions: human albumin chromatography column, chromatographic estimate, read-out: Plasma protein binding PPB (converted)
[2] = Seven-day oral dose range rat toxicity study; type: in vivo
Experimental: Male Crl:CD rats (9 wk old, weighing 316.8–349.4 g on d 1; Charles River) were administered 1 oral dose of NDD-825.HCl in water that contained 0.5% (w/v) hydroxypropylmethylcellulose K15M, 0.5% (v/v) benzyl alcohol, and 0.4% (v/v) Tween-80 at 20, 90, or 300 mg/kg at a dose volume of 10 ml/kg for 7 consecutive days (4 animals per group). Blood samples were collected before and at time points during the 24 h that followed for bioanalysis. Animals were monitored for adverse clinical signs and body weight. Terminal blood samples were taken for clinical chemistry, and organs were harvested for microscopic examination (see Supplemental Data for full details). Three additional male rats per group received NDD-825.HCl on d 1 only to collect blood samples for plasma bioanalysis of compound toxicokinetics. NDD-825 was quantifiable in plasma of all animals up to 8 h after dose administration; […]. Systemic exposure to NDD-825 in terms of Cmax increased in approximate proportion with increasing dose, whereas for the same dose increase, AUC0-t increased in a supraproportional manner across the entire dose range. […]. […] Study was carried out by Aptuit (Verona, Italy).

[3] = Metabolic stability, rat liver microsomes; type: in vitro ADME; conditions: in the presence of NAD+, NADPH, or in the absence of cofactors
Experimental: NDD-713.HCl and -825.HCl were incubated (0.02, 0.1, or 0.5 μM at 37°C, 120 min) with human (XenoTech, Kansas City, KS, USA) or rat liver microsomes (BD Biosciences, Brea, CA, USA) at 0.4 mg/ml protein concentration. Metabolic reaction was initiated by addition of NADPH-regenerating system or NADPH-regenerating system with uridine diphosphate glucuronic acid. Samples were quenched at time points by acetonitrile addition. Control samples, which contained neither NADPH, nor uridine diphosphate glucuronic acid, were monitored for degradation. Compound concentrations were determined by ultraperformance LC-MS (UPLC-MS) relative to calibration standards that were prepared in quenched liver microsomes and fitted to exponential decay functions to determine first-order rate constants (k) for substrate depletion. These were used to calculate in vitro intrinsic clearance (CLint) values: CLint = k/microsomal protein content (0.4 mg protein/ml). Metabolic stability assays that used rat liver cytosol (BD Biosciences), human cryopreserved hepatocytes, or rat hepatocytes were carried out similarly. Average viable cell concentrations were determined by Trypan Blue exclusion methods (in the absence of test compounds). Studies were carried out by CDCO.

[4] = molecular target: CYP2D6 (Homo sapiens, UniProt P10635); assay: P450 inhibition in human liver microsomes; type: in vitro ADME; set-up: in human liver microsomes (batch 34689 for CYP1A2 and CYP3A4; batch 0910251 for CYP2C9, CYP2C19, and CYP2D6); tissue batch 0910251; host or cells: human liver microsomes; conditions: 0.25–20 μM, hydrochloride salts used
Experimental: Concentrations of NDD-713.HCl and -825.HCl (0.25–20 μM) were incubated in triplicate (37°C for 4–40 min) with substrates specific for individual P450 isoforms (see Supplemental Data for full details) in human liver microsomes (batch 34689 for CYP1A2 and CYP3A4; batch 0910251 for CYP2C9, CYP2C19, and CYP2D6) at protein concentrations of 0.4 mg/ml (CYP1A2, CYP2C9, CYP2D6 and CYP3A4/5) or 1.0 mg/ml (CYP2C19) and a total organic solvent concentration <1%. Reaction was initiated by addition of NADPH-regenerating system and samples were quenched by addition of ice-cold acetonitrile, which contained 0.15 μg/ml diazepam as an internal standard, before determination of the concentration of specific metabolites by LC-MS. Compound IC50 values (and positive control) for each P450 isoform was assessed according to %reduction in formation of the specific metabolite (maximal metabolite formation occurring in the absence of inhibitor). […] Control samples were included to confirm that the LC-MS assay was not affected by test compounds (and potential metabolites). Studies were carried out by CDCO.

[5] = PK analysis in male Sprague-Dawley rats; type: in vivo; conditions: rat; for AUC(0-t) / half-life / clearance / Vd / Cmax / Tmax / bioavailability: male, Sprague-Dawley; for AUC(0-t) / half-life / clearance / Vd / Cmax / Tmax / AUC0-t/dose: hydrochloride salt forms; for half-life: read-out: t1/2, app (converted); for Vd: read-out: Vss; for Unbound plasma level at Cmax below β2-AR Kd / Likely duration of β1-AR blockade: 20 mg/kg p.o.; for Likely duration of β1-AR blockade: judged from PK profile vs Kd
Experimental: Blood samples were centrifuged, supernatant plasma was removed, and plasma concentrations of compounds were determined by LC-MS. […] Studies were carried out by CDCO.

[6] = molecular target: 5-HT2B (Homo sapiens, UniProt P41595); assay: Cerep receptor radioligand-binding assay; conditions: concentration-response, Cheng-Prusoff
Experimental: (§1) […]; Ki (inhibition constant) was calculated by using the Cheng-Prusoff equation from the mean of duplicate determinations in cell-based receptor radioligand-binding assays. Cerep in vitro pharmacology profiling service was used (see the Supplemental Data for a list of the assays used).

[7] = molecular target: dopamine transporter (Homo sapiens, UniProt Q01959); assay: Cerep radioligand-binding assay
Experimental: as §1

[8] = molecular target: noradrenaline transporter (Homo sapiens, UniProt P23975); assay: Cerep radioligand-binding assay
Experimental: as §1

[9] = plasma, iv, i.v. 2 mg/kg, mean ± SD n = 3
[10] = plasma, iv, i.v. 2 mg/kg, read-out: Plasma CLtotal
[11] = plasma, iv, i.v. 6 mg/kg, mean ± SD n = 3
[12] = plasma, iv, i.v. 6 mg/kg, read-out: Plasma CLtotal
[13] = plasma, iv, i.v. 20 mg/kg, mean ± SD n = 3
[14] = plasma, iv, i.v. 20 mg/kg, read-out: Plasma CLtotal
[15] = whole blood, iv, i.v. 2 mg/kg, read-out: Blood CLtotal
[16] = whole blood, iv, i.v. 6 mg/kg, read-out: Blood CLtotal
[17] = whole blood, iv, i.v. 20 mg/kg, read-out: Blood CLtotal
[18] = concentration-response, Cheng-Prusoff

Sequence of CYP2D6 (P10635 whole entry, canonical isoform): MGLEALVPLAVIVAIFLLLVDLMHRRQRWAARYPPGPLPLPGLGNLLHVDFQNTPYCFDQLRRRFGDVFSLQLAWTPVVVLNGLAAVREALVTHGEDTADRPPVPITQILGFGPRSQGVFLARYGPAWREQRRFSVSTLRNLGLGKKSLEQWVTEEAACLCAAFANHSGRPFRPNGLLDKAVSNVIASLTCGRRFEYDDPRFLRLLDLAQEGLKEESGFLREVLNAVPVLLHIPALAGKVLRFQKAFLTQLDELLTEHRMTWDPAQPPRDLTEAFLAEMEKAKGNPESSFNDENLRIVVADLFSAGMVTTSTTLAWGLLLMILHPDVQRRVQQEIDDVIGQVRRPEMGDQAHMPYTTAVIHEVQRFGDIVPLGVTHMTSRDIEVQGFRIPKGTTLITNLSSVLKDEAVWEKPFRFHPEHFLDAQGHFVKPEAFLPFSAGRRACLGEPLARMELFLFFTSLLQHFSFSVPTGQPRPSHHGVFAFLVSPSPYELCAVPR
Sequence of dopamine transporter (Q01959 whole entry): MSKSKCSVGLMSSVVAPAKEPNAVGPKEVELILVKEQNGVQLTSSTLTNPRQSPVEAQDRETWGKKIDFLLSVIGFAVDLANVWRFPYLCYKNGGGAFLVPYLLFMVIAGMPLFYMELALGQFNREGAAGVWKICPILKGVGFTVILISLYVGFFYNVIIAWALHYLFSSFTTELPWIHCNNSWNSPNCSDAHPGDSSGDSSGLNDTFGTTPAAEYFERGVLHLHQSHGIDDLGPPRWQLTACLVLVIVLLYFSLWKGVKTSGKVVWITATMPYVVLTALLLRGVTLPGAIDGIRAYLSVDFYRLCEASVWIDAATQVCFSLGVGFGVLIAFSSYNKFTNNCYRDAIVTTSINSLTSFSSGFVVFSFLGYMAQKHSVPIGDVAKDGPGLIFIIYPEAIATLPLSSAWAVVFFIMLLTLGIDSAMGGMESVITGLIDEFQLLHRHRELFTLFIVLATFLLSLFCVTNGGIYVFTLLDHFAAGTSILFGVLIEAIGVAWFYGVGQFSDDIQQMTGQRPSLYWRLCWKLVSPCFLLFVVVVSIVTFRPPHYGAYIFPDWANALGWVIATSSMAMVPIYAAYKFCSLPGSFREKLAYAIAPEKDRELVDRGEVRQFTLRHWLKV
Sequence of human albumin (P02768 25-609): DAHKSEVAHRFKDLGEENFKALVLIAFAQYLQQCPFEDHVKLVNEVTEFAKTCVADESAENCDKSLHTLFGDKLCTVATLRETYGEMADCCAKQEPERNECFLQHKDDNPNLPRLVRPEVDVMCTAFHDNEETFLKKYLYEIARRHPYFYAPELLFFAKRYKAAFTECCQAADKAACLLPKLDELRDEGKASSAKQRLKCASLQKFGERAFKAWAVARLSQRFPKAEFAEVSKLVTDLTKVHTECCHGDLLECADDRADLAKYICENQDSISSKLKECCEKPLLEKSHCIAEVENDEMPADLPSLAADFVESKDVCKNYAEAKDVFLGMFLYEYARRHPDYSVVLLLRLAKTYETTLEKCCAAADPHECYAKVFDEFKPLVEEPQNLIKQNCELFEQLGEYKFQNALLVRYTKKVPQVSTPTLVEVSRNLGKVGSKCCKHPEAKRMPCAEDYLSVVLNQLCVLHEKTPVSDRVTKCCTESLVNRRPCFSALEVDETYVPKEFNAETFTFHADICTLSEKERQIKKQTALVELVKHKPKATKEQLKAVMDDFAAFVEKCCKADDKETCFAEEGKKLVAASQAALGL
Sequence of noradrenaline transporter (P23975 whole entry): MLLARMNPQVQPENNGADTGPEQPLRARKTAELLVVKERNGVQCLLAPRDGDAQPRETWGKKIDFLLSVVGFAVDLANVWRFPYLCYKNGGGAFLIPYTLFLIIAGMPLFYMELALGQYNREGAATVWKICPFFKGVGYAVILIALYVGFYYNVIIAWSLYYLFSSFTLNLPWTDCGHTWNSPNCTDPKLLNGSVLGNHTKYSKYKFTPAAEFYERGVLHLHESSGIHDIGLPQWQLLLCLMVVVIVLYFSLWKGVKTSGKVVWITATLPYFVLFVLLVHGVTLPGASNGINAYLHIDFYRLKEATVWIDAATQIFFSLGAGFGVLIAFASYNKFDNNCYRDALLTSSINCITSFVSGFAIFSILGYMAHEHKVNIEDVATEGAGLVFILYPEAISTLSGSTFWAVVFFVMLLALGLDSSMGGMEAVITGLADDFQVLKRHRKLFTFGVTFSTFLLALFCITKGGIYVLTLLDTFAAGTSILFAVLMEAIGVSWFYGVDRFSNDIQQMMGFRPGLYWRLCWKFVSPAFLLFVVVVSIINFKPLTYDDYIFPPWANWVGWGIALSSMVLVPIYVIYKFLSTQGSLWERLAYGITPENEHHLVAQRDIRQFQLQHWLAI
Sequence of 5-HT2B (P41595 whole entry): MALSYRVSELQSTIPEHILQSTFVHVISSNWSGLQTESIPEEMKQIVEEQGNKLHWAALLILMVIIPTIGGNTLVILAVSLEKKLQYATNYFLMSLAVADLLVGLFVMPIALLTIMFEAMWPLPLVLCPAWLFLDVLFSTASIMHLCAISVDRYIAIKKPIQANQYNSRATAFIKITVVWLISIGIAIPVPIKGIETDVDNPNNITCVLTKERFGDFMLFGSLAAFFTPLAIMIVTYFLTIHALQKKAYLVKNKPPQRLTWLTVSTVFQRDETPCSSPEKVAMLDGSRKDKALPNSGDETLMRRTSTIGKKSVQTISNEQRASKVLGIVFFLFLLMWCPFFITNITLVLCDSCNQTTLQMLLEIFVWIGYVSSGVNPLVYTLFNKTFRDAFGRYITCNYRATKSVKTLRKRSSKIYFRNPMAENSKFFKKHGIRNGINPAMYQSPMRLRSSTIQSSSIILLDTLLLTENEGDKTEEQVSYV

O=C1NCc2cc(OCCNC[C@H](O)COc3ccc4c(c3)OC[C@@H](COCC3CC3)O4)ccc21 [NDD-825]
fraction unbound [1]: 0.265 | Tolerability ([2]; 300 mg/kg once daily p.o. for 7 d (highest dose tested)): well tolerated | Change in triglycerides ([2]; 7-d repeat oral dosing, top dose): dose-related increase in triglycerides | MTD at 7 d ([2]; male, Crl:CD, in vivo, 7-d repeat oral dosing, read-out: Maximum tolerated dose): > 300 mg/kg/day | Tmax ([2]; male, Crl:CD, plasma, oral 20, 90 or 300 mg/kg, read-out: tmax (toxicokinetics)): 2 to 8 h | Increase of AUC0-t for a 15-fold increase in dose ([2]; oral, 20 to 300 mg/kg/d): 31.4 fold | Increase of Cmax for a 15-fold increase in dose ([2]; oral, 20 to 300 mg/kg/d): 12.4 fold | microsomal CLint [3]: 0.18 ± 0.2 µL/min/mg | IC50 [4]: > 20000 nM | AUC(0-t) ([5]; plasma, iv, i.v. 2 mg/kg): 1.4 µM·h | half-life [5, 9]: 5.3 ± 0.3 h | clearance [5, 10]: 54 ± 2 mL/min/kg | Vd ([5]; plasma, iv, i.v. 2 mg/kg): 6 ± 0.5 L/kg | AUC(0-t) ([5]; plasma, iv, i.v. 6 mg/kg): 3.8 ± 0.2 µM·h | half-life [5, 11]: 7.3 ± 0.1 h | clearance [5, 12]: 59 ± 1 mL/min/kg | Vd ([5]; plasma, iv, i.v. 6 mg/kg): 5 L/kg | AUC(0-t) ([5]; plasma, iv, i.v. 20 mg/kg): 12.1 ± 0.3 µM·h | half-life [5, 13]: 7.1 ± 1.3 h | clearance [5, 14]: 55 ± 1 mL/min/kg | Vd ([5]; plasma, iv, i.v. 20 mg/kg): 4.7 L/kg | AUC(0-t) ([5]; plasma, po, p.o. 2 mg/kg): 0.4 ± 0.1 µM·h | Cmax ([5]; plasma, po, p.o. 2 mg/kg): 100 nM | Tmax ([5]; plasma, po, p.o. 2 mg/kg): 1.38 h | half-life ([5]; plasma, po, p.o. 2 mg/kg): 9.8 ± 0.2 h | AUC(0-t) ([5]; plasma, po, p.o. 10 mg/kg): 3 ± 0.4 µM·h | Cmax ([5]; plasma, po, p.o. 10 mg/kg): 800 ± 100 nM | Tmax ([5]; plasma, po, p.o. 10 mg/kg): 0.75 h | half-life ([5]; plasma, po, p.o. 10 mg/kg): 4.6 ± 0.1 h | AUC(0-t) ([5]; plasma, po, p.o. 20 mg/kg): 11.9 ± 3 µM·h | Cmax ([5]; plasma, po, p.o. 20 mg/kg): 1400 ± 300 nM | Tmax ([5]; plasma, po, p.o. 20 mg/kg): 3.1 h | half-life ([5]; plasma, po, p.o. 20 mg/kg): 3.3 ± 0.2 h | bioavailability ([5]; plasma, po, 2 mg/kg): 32 ± 5% | bioavailability ([5]; plasma, po, 10 mg/kg): 45 ± 6% | bioavailability ([5]; plasma, po, 20 mg/kg): 89 ± 24% | clearance [5, 15]: 39 ± 1 mL/min/kg | clearance [5, 16]: 42 ± 1 mL/min/kg | clearance [5, 17]: 39 ± 1 mL/min/kg | Unbound plasma level at Cmax below β2-AR Kd [5]: at least 5 fold | Likely duration of β1-AR blockade [5]: > 24 h | AUC0-t/dose ([5]; i.v. 2 mg/kg): 0.6 ± 0 μM ⋅ h/(mg/kg) | AUC0-t/dose ([5]; i.v. 6 mg/kg): 0.6 ± 0 μM ⋅ h/(mg/kg) | AUC0-t/dose ([5]; i.v. 20 mg/kg): 0.6 ± 0 μM ⋅ h/(mg/kg) | AUC0-t/dose ([5]; p.o. 2 mg/kg): 0.2 ± 0 μM ⋅ h/(mg/kg) | AUC0-t/dose ([5]; p.o. 10 mg/kg): 0.3 ± 0.1 μM ⋅ h/(mg/kg) | AUC0-t/dose ([5]; p.o. 20 mg/kg): 0.5 ± 0.2 μM ⋅ h/(mg/kg)

NC(=O)c1ccc(OCCNC[C@H](O)COc2ccc3c(c2)OC[C@@H](COCC2CC2)O3)cc1 [NDD-713]
fraction unbound [1]: 0.365 | microsomal CLint [3]: < 0.1 µL/min/mg | IC50 [4]: > 20000 nM | Ki [6]: > 10000 nM | β1-AR vs. dopamine transporter selectivity [7]: 53 fold | Ki [7, 18]: 800 nM | β1-AR vs. noradrenaline transporter selectivity [8]: 185 fold | Ki [8, 18]: 2800 nM | AUC(0-t) ([5]; plasma, iv, i.v. 2 mg/kg): 1.2 ± 0.1 µM·h | half-life [5, 9]: 1.7 ± 0.2 h | clearance [5, 10]: 62 ± 4 mL/min/kg | Vd ([5]; plasma, iv, i.v. 2 mg/kg): 4.3 ± 0.4 L/kg | AUC(0-t) ([5]; plasma, iv, i.v. 6 mg/kg): 4.6 ± 0.3 µM·h | half-life [5, 11]: 1.6 ± 0.1 h | clearance [5, 12]: 43 ± 1 mL/min/kg | Vd ([5]; plasma, iv, i.v. 6 mg/kg): 3.6 ± 0.2 L/kg | AUC(0-t) ([5]; plasma, iv, i.v. 20 mg/kg): 14.7 ± 1 µM·h | half-life [5, 13]: 2 h | clearance [5, 14]: 51 ± 2 mL/min/kg | Vd ([5]; plasma, iv, i.v. 20 mg/kg): 4.2 ± 0.2 L/kg | AUC(0-t) ([5]; plasma, po, p.o. 2 mg/kg): 0.6 ± 0.2 µM·h | Cmax ([5]; plasma, po, p.o. 2 mg/kg): 200 ± 100 nM | Tmax ([5]; plasma, po, p.o. 2 mg/kg): 0.5 h | AUC(0-t) ([5]; plasma, po, p.o. 10 mg/kg): 5.1 ± 0.2 µM·h | Cmax ([5]; plasma, po, p.o. 10 mg/kg): 2100 ± 600 nM | Tmax ([5]; plasma, po, p.o. 10 mg/kg): 0.75 h | half-life ([5]; plasma, po, p.o. 10 mg/kg): 1.5 h | AUC(0-t) ([5]; plasma, po, p.o. 20 mg/kg): 6.3 ± 0.3 µM·h | Cmax ([5]; plasma, po, p.o. 20 mg/kg): 2000 ± 100 nM | Tmax ([5]; plasma, po, p.o. 20 mg/kg): 0.75 h | half-life ([5]; plasma, po, p.o. 20 mg/kg): 2.1 h | bioavailability ([5]; plasma, po, 2 mg/kg): 50 ± 11% | bioavailability ([5]; plasma, po, 10 mg/kg): 77 ± 3% | bioavailability ([5]; plasma, po, 20 mg/kg): 44 ± 1% | clearance [5, 15]: 51 ± 3 mL/min/kg | clearance [5, 16]: 36 ± 1 mL/min/kg | clearance [5, 17]: 42 ± 1 mL/min/kg | Unbound plasma level at Cmax below β2-AR Kd [5]: at least 5 fold | Likely duration of β1-AR blockade [5]: 10 h | AUC0-t/dose ([5]; i.v. 2 mg/kg): 0.6 ± 0.1 μM ⋅ h/(mg/kg) | AUC0-t/dose ([5]; i.v. 6 mg/kg): 0.8 ± 0 μM ⋅ h/(mg/kg) | AUC0-t/dose ([5]; i.v. 20 mg/kg): 0.7 ± 0 μM ⋅ h/(mg/kg) | AUC0-t/dose ([5]; p.o. 2 mg/kg): 0.4 ± 0.1 μM ⋅ h/(mg/kg) | AUC0-t/dose ([5]; p.o. 10 mg/kg): 0.5 ± 0.1 μM ⋅ h/(mg/kg) | AUC0-t/dose ([5]; p.o. 20 mg/kg): 0.3 ± 0 μM ⋅ h/(mg/kg)
